From US12251387B2, “Substituted quinoxalines and benzo[c][1,2,5]oxadiazoles as DNA-PK inhibitors” (Vertex Pharmaceuticals Incorporated, priority 2013, dated 2025) come the findings set out here.

Molecules are shown by their SMILES.

The target in this assay is DNA-PK (Homo sapiens, UniProt P78527). The experiment in a line: DNA-PK Inhibition Assay (standard radiometric kinase assay, 33P-ATP, peptide substrate). The following applies: radiometric assay, approximately 6 nM DNA-PK, 100 μM ATP, 45 min; fit to competitive tight-binding inhibition; read-out: Ki for the inhibition of DNA-PK. Type of assay: biochemical. Here is the method: Compounds were screened for their ability to inhibit DNA-PK kinase using a standard radiometric assay. Briefly, in this kinase assay the transfer of the terminal ^33P-phosphate in ^33P-ATP to a peptide substrate is interrogated. The assay was carried out in 384-well plates to a final volume of 50 μL per well containing approximately 6 nM DNA-PK, 50 mM HEPES (pH 7.5), 10 mM MgCl2, 25 mM NaCl, 0.01% BSA, 1 mM DTT, 10 μg/mL sheared double-stranded DNA (obtained from Sigma), 0.8 mg/mL DNA-PK peptide (Glu-Pro-Pro-Leu-Ser-Gln-Glu-Ala-Phe-Ala-Asp-Leu-Trp-Lys-Lys-Lys, obtained from American Peptide), and 100 μM ATP. Accordingly, compounds of the invention were dissolved in DMSO to make 10 mM initial stock solutions. Serial dilutions in DMSO were then made to obtain the final solutions for the assay. A 0.75 μL aliquot of DMSO or inhibitor in DMSO was added to each well, followed by the addition of ATP substrate solution containing ^33P-ATP (obtained from Perkin Elmer). The reaction was started by the addition of DNA-PK, peptide and ds-DNA. After 45 min, the reaction was quenched with 25 μL of 5% phosphoric acid. The reaction mixture was transferred to MultiScreen HTS 384-well PH plates (obtained from Millipore), allowed to bind for one hour, and washed three times with 1% phosphoric acid. Following the addition of 50 μL of Ultima Gold™ high efficiency scintillant (obtained from Perkin Elmer), the samples were counted in a Packard TopCount NXT Microplate Scintillation and Luminescence Counter (Packard BioScience). The Ki values were calculated using Microsoft Excel Solver macros to fit the data to the kinetic model for competitive tight-binding inhibition.
Consider `c1cc(C2CC2)nc(N[C@H]2CC[C@@H](Oc3cc(N4CCOCC4)cc4nccnc34)CC2)n1` [Compound 455], for which the Ki (as a rule, the equilibrium dissociation constant of an inhibitor or competing ligand from its target) is < 100 nM.
The same measure for `COc1c(N[C@H]2CC[C@@H](Oc3cc(N4CCOCC4)cc4nccnc34)CC2)ncnc1N(C)C` [Compound 388]: < 100 nM; for `CCc1nccc(N[C@H]2CC[C@@H](Oc3cc(N4CCOCC4)cc4nccnc34)CC2)n1` [Compound 439]: < 100 nM.
In the case of `Cc1ncc(C)c(N[C@H]2CC[C@@H](Oc3cc(N4CCOCC4)cc4nccnc34)CC2)n1` [Compound 490], the Ki is < 100 nM.
`CN1CCc2c(N[C@H]3CC[C@@H](Oc4cc(N5CCOCC5)cc5nccnc45)CC3)ncnc21` [Compound 473]: the Ki is < 100 nM.
In the case of `c1cnc2c(O[C@H]3CC[C@@H](Nc4ccc(OCCN5CCOCC5)cn4)CC3)cc(N3CCOCC3)cc2n1` [Compound 639], the Ki was < 100 nM.
Consider `Cc1cnc(N[C@H]2CC[C@@H](Oc3cc(N4CCOCC4)cc4nccnc34)CC2)nc1C` [Compound 467], for which the Ki is < 100 nM.
On to `CNC(=O)c1ccnc(N[C@H]2CC[C@@H](Oc3cc(C4=CCOCC4)cc4nccnc34)CC2)n1` [Compound 319], for which the Ki is < 100 nM.
The same measure for `Clc1cc2nccn2c(N[C@H]2CC[C@@H](Oc3cc(N4CCOCC4)cc4nccnc34)CC2)n1` [Compound 538]: < 100 nM; for `Nc1nccc(N[C@H]2CC[C@@H](Oc3cc(N4CCOCC4)cc4nccnc34)CC2)n1` [Compound 397]: < 100 nM; for `CN1Cc2c(N[C@H]3CC[C@@H](Oc4cc(N5CCOCC5)cc5nccnc45)CC3)cccc2C1=O` [Compound 340]: < 100 nM.
The value for `CCc1cc(N[C@H]2CC[C@@H](Oc3cc(N4CCOCC4)cc4nccnc34)CC2)ncn1` [Compound 651] was < 100 nM.
The same measure for `Cc1ncn2ccnc(N[C@H]3CC[C@@H](Oc4cc(N5CCOCC5)cc5nccnc45)CC3)c12` [Compound 313]: < 100 nM; for `c1cnc2c(O[C@H]3CC[C@@H](Nc4ccn5nccc5n4)CC3)cc(N3CCOCC3)cc2n1` [Compound 498]: < 100 nM.
Regarding `COc1ncc(N[C@H]2CC[C@@H](Oc3cc(N4CCOCC4)cc4nccnc34)CC2)cn1` [Compound 574], the Ki is < 100 nM.
Consider `c1cnc(NC[C@H]2CC[C@@H](Oc3cc(N4CCOCC4)cc4nccnc34)CC2)nc1` [Compound 348], for which the Ki was < 100 nM.
As to `O=C(O)c1cc(N[C@H]2CC[C@@H](Oc3cc(N4CCOCC4)cc4nccnc34)CC2)ccc1F` [Compound 420], the Ki was < 100 nM.
The same measure for `c1cc(C2CCNCC2)nc(N[C@H]2CC[C@@H](Oc3cc(N4CCOCC4)cc4nccnc34)CC2)n1` [Compound 551]: < 100 nM.
With `CC(C)(C)OC(=O)N1CCn2cnc(N[C@H]3CC[C@@H](Oc4cc(N5CCOCC5)cc5nccnc45)CC3)c2C1` [Compound 296], the Ki was < 100 nM.
Turning to `c1cc(-c2nnco2)nc(N[C@H]2CC[C@@H](Oc3cc(N4CCOCC4)cc4nccnc34)CC2)n1` [Compound 461], the Ki is < 100 nM.
For `Cc1nc(C)c(F)c(N[C@H]2CC[C@@H](Oc3cc(N4CCOCC4)cc4nccnc34)CC2)n1` [Compound 463], the Ki was < 100 nM.
The same measure for `COc1cc(N[C@H]2CC[C@@H](Oc3cc(N4CCOCC4)cc4nccnc34)CC2)nc(C)n1` [Compound 659]: < 100 nM.
The same measure for `COc1ccc(N[C@H]2CC[C@@H](Oc3cc(N4CCOCC4)cc4nccnc34)CC2)cn1` [Compound 447]: < 100 nM; for `COc1cncc(NC[C@H]2CC[C@@H](Oc3cc(N4CCOCC4)cc4nccnc34)CC2)c1` [Compound 347]: < 100 nM.
For the compound `c1cnc2c(O[C@H]3CC[C@@H](Nc4ncc(C5CCNC5)cn4)CC3)cc(N3CCOCC3)cc2n1` (some centres unmarked) [Compound 569], the Ki is < 100 nM.
The same measure for `CCc1cc(N[C@H]2CC[C@@H](Oc3cc(N4CCOCC4)cc4nccnc34)CC2)nc(C)n1` [Compound 597]: < 100 nM.
The same measure for `c1cnc2c(O[C@H]3CC[C@@H](Nc4ncc(CN5CCCC5)cn4)CC3)cc(N3CCOCC3)cc2n1` [Compound 528]: < 100 nM; for `c1cnc2c(O[C@H]3CC[C@@H](Nc4ncc(CCN5CCCCC5)cn4)CC3)cc(N3CCOCC3)cc2n1` [Compound 433]: < 100 nM; for `Fc1nc(N[C@H]2CC[C@@H](Oc3cc(N4CCOCC4)cc4nccnc34)CC2)c2nc[nH]c2n1` [Compound 521]: < 100 nM.
The value for `Fc1c(NC2CCOC2)ncnc1N[C@H]1CC[C@@H](Oc2cc(N3CCOCC3)cc3nccnc23)CC1` (some centres unmarked) [Compound 379] was < 100 nM; that for `c1nc(N[C@H]2CC[C@@H](Oc3cc(N4CCOCC4)cc4nccnc34)CC2)cc(C2CC2)n1` [Compound 650] was < 100 nM.
With `c1cc(N[C@H]2CC[C@@H](Oc3cc(N4CCOCC4)cc4nccnc34)CC2)cnn1` [Compound 354], the Ki was < 100 nM.
The value for `Fc1cccnc1N[C@H]1CC[C@@H](Oc2cc(N3CCOCC3)cc3nccnc23)CC1` [Compound 591] was < 100 nM.
In the case of `OCc1cccnc1N[C@H]1CC[C@@H](Oc2cc(N3CCOCC3)cc3nccnc23)CC1` [Compound 584], the Ki was < 100 nM.
The same measure for `Cc1nccc(N[C@H]2CC[C@@H](Oc3cc(C4=COCC4)cc4nccnc34)CC2)n1` [Compound 288]: < 100 nM; for `c1cc(N[C@H]2CC[C@@H](Oc3cc(N4CCOCC4)cc4nccnc34)CC2)c2c(c1)OCO2` [Compound 339]: < 100 nM.
As to `c1cnc2c(O[C@H]3CC[C@@H](Nc4ccc(C5CCC5)nn4)CC3)cc(N3CCOCC3)cc2n1` [Compound 601], the Ki is < 100 nM.
As to `c1cc(N[C@H]2CC[C@@H](Oc3cc(N4CCOCC4)cc4nccnc34)CC2)nc(CN2CCOCC2)n1` [Compound 503], the Ki is < 100 nM.
The value for `Cc1nccc(N(C)[C@H]2CC[C@@H](Oc3cc(N4CCOCC4)cc4nccnc34)CC2)n1` [Compound 399] was < 100 nM; that for `CC1(C)CC(c2cnc(N[C@H]3CC[C@@H](Oc4cc(N5CCOCC5)cc5nccnc45)CC3)nc2)CC(C)(C)N1` [Compound 550] was < 100 nM; that for `Cc1cc(N[C@H]2CC[C@@H](Oc3cc(N4CCOCC4)cc4nccnc34)CC2)nn1C` [Compound 326] was < 100 nM.
With `Clc1nc(N[C@H]2CC[C@@H](Oc3cc(N4CCOCC4)cc4nccnc34)CC2)c2[nH]ccc2n1` [Compound 513], the Ki is < 100 nM.
The same measure for `Cc1nc(N[C@H]2CC[C@@H](Oc3cc(N4CCOCC4)cc4nccnc34)CC2)cc(C2CC2)n1` [Compound 636]: < 100 nM; for `c1cnc2c(O[C@H]3C[C@@H](Nc4ncnc5ccoc45)C3)cc(N3CCOCC3)cc2n1` [Compound 356]: < 100 nM; for `Clc1nccc(N[C@H]2CC[C@@H](Oc3cc(N4CCOCC4)cc4nccnc34)CC2)n1` [Compound 533]: < 100 nM.
As for `c1cnc2c(O[C@H]3CC[C@@H](Nc4ncnc5[nH]cnc45)CC3)cc(N3CCOCC3)cc2n1` [Compound 516], the Ki was < 100 nM.
In the case of `Oc1nccc(N[C@H]2CC[C@@H](Oc3cc(N4CCOCC4)cc4nccnc34)CC2)n1` [Compound 280], the Ki was < 100 nM.
As to `FC(F)(F)c1ccnc(N[C@H]2CC[C@@H](Oc3cc(N4CCOCC4)cc4nccnc34)CC2)c1` [Compound 589], the Ki is < 100 nM.
Regarding `Cc1cncc(N[C@H]2CC[C@@H](Oc3cc(N4CCOCC4)cc4nccnc34)CC2)c1` [Compound 465], the Ki was < 100 nM.
The value for `Cc1cnc(N[C@H]2CC[C@@H](Oc3cc(N4CCOCC4)cc4nccnc34)CC2)c(C)c1` [Compound 595] was < 100 nM.
As to `COc1nc(Cl)nc(N[C@H]2CC[C@@H](Oc3cc(N4CCOCC4)cc4nccnc34)CC2)n1` [Compound 609], the Ki was < 100 nM.
In the case of `c1cc2ncnn2c(N[C@H]2CC[C@@H](Oc3cc(N4CCOCC4)cc4nccnc34)CC2)n1` [Compound 542], the Ki was < 100 nM.
For the compound `Clc1cncc(N[C@H]2CC[C@@H](Oc3cc(N4CCOCC4)cc4nccnc34)CC2)n1` [Compound 374], the Ki is < 100 nM.
The same measure for `OCCc1cnc(N[C@H]2CC[C@@H](Oc3cc(N4CCOCC4)cc4nccnc34)CC2)nc1` [Compound 481]: < 100 nM; for `Cn1ccc(N[C@H]2CC[C@@H](Oc3cc(N4CCOCC4)cc4nccnc34)CC2)n1` [Compound 649]: < 100 nM.
`CC(C)(C)OC(=O)N1CCC(c2ccnc(N[C@H]3CC[C@@H](Oc4cc(N5CCOCC5)cc5nccnc45)CC3)n2)CC1` [Compound 557]: the Ki was < 100 nM.
The same measure for `Cc1cnc(C)c(N[C@H]2CC[C@@H](Oc3cc(N4CCOCC4)cc4nccnc34)CC2)c1` [Compound 441]: < 100 nM; for `c1cnc2c(O[C@H]3CC[C@@H](Nc4ncc(OCCCN5CCOCC5)cn4)CC3)cc(N3CCOCC3)cc2n1` [Compound 526]: < 100 nM.
For the compound `COc1ccnc(N[C@H]2CC[C@@H](Oc3cc(N4CCOCC4)cc4nccnc34)CC2)c1` [Compound 627], the Ki was < 100 nM.
